The text below walks through data of patent publication US7388124B2 (priority 2001, dated 2008).

The subject of assay [1] is Mice with Neural Compression. Nature of the assay: von Frey fiber and camel hair brush testing for mechanical allodynia in mice with collagen placed by the posterior tibial nerve. It is filed as in vivo. Particulars: for Average # Paw Withdrawals: of 10 stimulations, n=10 mice. The method, then: Biocompatible collagen was prepared for use in the present study. The collagen source was dry gelatin that was prepared using sterile techniques. The dry collagen was measured to 2.5 grams and mixed with 7.5 cc of sterile normal saline. The mixture was heated for 30 seconds in a microwave on 80% power, The mixture was kept soft in warm water (approximately 100 to 110 degrees).
The consistency of the resulting warm collagen was such that it was able to pass through a 23 gauge needle. Humidity and other factors such as temperature can affect the consistency of the substance. 1-cc syringes were used for injection of 0.2 to 0.25 cc of collagen. For the injection, 23 gauge 1″ standard luer lock hypodermic needles were used. The needles were very slightly dulled with a metal file at the tip and edges using sterile technique. The needles were angled at the midpoint with a bevel tip up. The angle was between 30 and 45 degrees, but any angle that allows for easy placement of the injected substance could be used. The needles were then attached to the collagen-filled one cc syringes. The syringes were kept in a warm water bath (100 to 110° F.) to maintain proper gel consistency.
The mice were lightly anesthetized with 1.5 to 2% isoflurane. The mice were then stabilized and aligned such that the left posterior leg was in view. The external anatomic landmarks of the posterior popliteal area were identified. The internal anatomy of this area including the posterior tibial nerve with its artery was mentally visualized with kinesthetic techniques. Kinesthetic techniques are methods that use the kinesthetic sense or the integration of the senses by which movement, mass, turgor, shape, resistance, elasticity, temperature, spatial relationships and position are commonly perceived. It also refers to the integrated use of multiple senses such as touch, proprioception, vision, and hearing. After location of the site for placement of the gel, the needle and syringe were then removed from the warm water bath. The distal portion of the needle was held loosely parallel to the tibia. The needle was allowed to gently penetrate through the dermis by pulling the skin taut over the popliteal fossa. With careful avoidance of tissue resistance, the needle tip, bevel up, was gently slipped beneath the fascial edge of the soleus muscle by the tibial nerve and artery into the deep posterior fascial compartment of the posterior tibial neurovascular tunnel, which is the neurovascular tunnel for the posterior tibial nerve and its proximal branches. When the tip of the needle was at the mid soleus muscle belly, the collagen mixture was slowly injected into the posterior tibial tunnel. The needle was removed and the animals allowed to recover from the anesthetic. All animals were normally moving freely within 20 minutes of anesthesia withdrawal.
Two days after placement of the collagen gel around the nerve, von Frey testing was again performed. Von Frey testing continued for 49 days. […]

In assay [2] the test system is rat pain model variants. Description: Analgesic effect in rat neurogenic pain model variants (overall statement). It is filed as in vivo, Sprague Dawley rats. The method, then:
(§1) The methods of preparation and testing were similar for all the variant pain models described in this example. Male Sprague Dawley rats initially weighing between 150 and 175 grams were housed singly. Baseline behaviors to stimulations of the paw on which the procedure was to be performed were recorded over several sessions after accommodation of 3-4 days, and the results were averaged and used as the baseline control data. The pain behaviors studied were static mechanical allodynia (e.g., light touch stimulation with von Frey fibers 4.56, 4.73, 4.93, and/or 5.07), dynamic mechanical allodynia (e.g., stimulation with moving camel hair brush), and/or mechanical hyperalgesia (e.g., pinprick stimulation).
(§2) After the baseline control data was collected, the specified procedure with a gel was performed near the chosen nerve of each variant group (see Tables 2-6 and 8-10), then the rats were tested post procedurally and intermittently for up to 77 days for behavioral changes (see Tables 2-6 and 8-11) and for their responses to substances with analgesic properties (see Tables 7 and 12).
(§3) The stimuli used to elicit pain behavior were the von Frey fibers, camel hair brush and pinprick, with 6 stimulations of each stimulus. Each variant pain model had the same sequence of stimuli with the positive responses averaged and a student T-test performed for the significance of the post procedural responses as compared to the baseline control data (see Tables 2-6 and 11); and for the post-analgesic responses as compared to the pre-analgesic behavioral data (see Tables 7 and 12).
(§4) The tunnels identified by the above studies were then used for the placement of the biocompatible gels by the chosen peripheral nerves. The gelatinous or viscous substances (i.e., the gels) placed by the peripheral nerves or nerve roots contained collagen (e.g., AVITENE® and gelatin) or hydrogels. The “collagen gel” used in the present study was composed of 0.8 grams of collagen as AVITENE® (microfibrillar collagen hemostat flour, Davol Inc., Cranston, R.I. 02920) and 0.7 grams of collagen as gelatin (Knox gelatin, Kraft Foods, Northfield, Ill. 60093) mixed with 14 cc of normal saline until homogenous. Then the collagen mixture was placed in a PYREX® bowl resting in a paper bowl and covered with a ceramic saucer, then heated for 20 seconds at full power in a microwave. The resulting viscous mixture was kept fluid in a warm water bath at 100-110° F., until used for the placement procedure. The wound hydrogels used in the present study were two types: one contains alginate (SAF-Gel® from ConvaTec of E. R. Squibb & Sons, Princeton, N.J.) and the other contains acemannan from Aloe vera L. (Carrasyn®V from Carrington Laboratories, Irving, Tex.). […] Such hydrogels are used in the care of open dermal wounds as well as in first and second degree burns since they provide a closed moist environment for wound healing.
(§5) The rats were anesthesized with 1.5% to 2% isoflurane for the percutaneous kinesthetic placement of the above “gels” by the specified nerves. Using an angled 23 gauge thin wall 1″ needle, approximately 0.1 cc-0.2 cc of gel was placed percutaneously with kinesthetic technique in the anatomically defined fascial tunnels of the chosen peripheral nerves as described below.
(§6) The doses were given intraperitoneally (I.P.) and behavioral stimulus testing began 40-80 minutes after the dose. The student's t-test (p<0.05) was performed for determining the significance of changes in behaviors associated with pain after the analgesic was administered.

Assay [3] relates to rat pain model variants. It is filed as in vivo, Sprague Dawley rats. Particulars: for von Frey F 4.93 # ST[…]-ANALGESIC: of 6. The protocol: Male Sprague Dawley rats initially weighing between 150 and 175 grams were housed singly. […] The pain behaviors studied were static mechanical allodynia (e.g., light touch stimulation with von Frey fibers 4.56, 4.73, 4.93, and/or 5.07), dynamic mechanical allodynia (e.g., stimulation with moving camel hair brush), and/or mechanical hyperalgesia (e.g., pinprick stimulation).
as §2
The stimuli used to elicit pain behavior were the von Frey fibers, camel hair brush and pinprick, with 6 stimulations of each stimulus.
as §4, §5, §6

Assay [4] relates to rat pain model variants. Nature of the assay: Dynamic mechanical allodynia (camel hair brush) in rat pain model variants. In kind it is in vivo, Sprague Dawley rats. Particulars: n=12 rats. The method, then: as §1, §2, §3
The tunnels identified by the above studies were then used for the placement of the biocompatible gels by the chosen peripheral nerves. The gelatinous or viscous substances (i.e., the gels) placed by the peripheral nerves or nerve roots contained collagen (e.g., AVITENE® and gelatin) or hydrogels. […]

The test system of assay [5] is rat pain model variants. Nature of the assay: Mechanical hyperalgesia (pinprick) in rat pain model variants. It is filed as in vivo, Sprague Dawley rats. Particulars: for Pinprick # ST[…]-ANALGESIC / Pinprick # STIMULATIONS POST-ANALGESIC: of 6; for Post Avg, Average Positive stimulations out of 6 total, Stim PP Pin Prick: n=12 rats. The method, then:
as §1, §2, §3, §4, §5, §6

The subject of assay [6] is open surgical rat model for CRPS I. Particulars: prior art surgical model, Reyna et al. 1999; cited from earlier work.
Where [7] appears, read: Ethosuximide 100 mg/kg IP, 1 rat tibial n. with Acemann hydrogel, pre 6.
Where [8] appears, read: Ethosuximide 100 mg/kg IP, 1 rat tibial n. with Alginate hydrogel, pre 6.

Where “and” joins values, the source holds several entries; their conditions need not be identical. Equal values may be shown once. Entries after “also recorded” stand apart in the source; their conditions may differ. Read-outs that look alike come from different tables or passages of the source.

In the case of `CN1CC[C@]23c4c5ccc(O)c4O[C@H]2[C@@H](O)C=C[C@H]3[C@H]1C5.O=S(=O)(O)O` [morphine, morphine sulfate], the “Average # Paw Withdrawals” value in assay [1] (morphine 1 mg/kg IP, post procedure day 49 (8.71 before dose)) amounted to 8.71; in assay [1] (morphine 5 mg/kg IP, post procedure day 51 (8.88 before dose)), 6.66. Also, the “Analgesic response (mechanical allodynia)” value in assay [1] (morphine at least 5 mg/kg IP) is recorded as “Analgesic responses were shown”. In addition, the “analgesic effect (significance)” value in the assay on rat pain model variants [2] (morphine 5 mg/kg IP, Tables 7 and 12, within 40-80 minutes, listed as Morphine, sulfate) was “significant analgesic effect”; with rat pain model variants [2] (morphine 5 mg/kg IP, Tables 7 and 12, within 40-80 minutes, listed as morphine Sulfate, sulfate), “significant analgesic effects”. Besides, the “Post Avg, Average Positive stimulations out of 6 total, Stim A vF 4.56” value in the assay on rat pain model variants [3] (Morphine Sulfate 5 mg/kg (IP), n=12 rats, Pre Avg 2.83, p=1.6E-4) was 0.33. The “Post Avg, Average Positive stimulations out of 6 total, Stim B vF 4.93” value with rat pain model variants [3] (Morphine Sulfate 5 mg/kg (IP), n=12 rats, Pre Avg 3.33, p=1.3E-6) was 0.58. Also, the “Post Avg, Average Positive stimulations out of 6 total, Stim C vF 5.07” value with rat pain model variants [3] (Morphine Sulfate 5 mg/kg (IP), n=12 rats, Pre Avg 3.33, p=6.1E-6) is 0.83. For the same compound, in the assay with rat pain model variants [4] (Morphine Sulfate 5 mg/kg (IP), Pre Avg 4.75, p=1.5E-6), the “Post Avg, Average Positive stimulations out of 6 total, Stim S Brush” value was 1.69. The “Pinprick # ST[…]-ANALGESIC” value was 1 with rat pain model variants [5] (Morphine 5 mg/kg IP, 1 rat peroneal n. with Avitene collagen, pre 6); 2 with rat pain model variants [5] (Morphine 5 mg/kg IP, 1 rat tibial n. with Acemannan hydrogel, pre 6); 3 in the assay with rat pain model variants [5] (Morphine 5 mg/kg IP, 1 rat tibial n. with Alginate hydrogel, pre 6); 2 and 4 with rat pain model variants [5] (Morphine 5 mg/kg IP, single rats sciatic n. with Alginate hydrogel (two rats, pre 6 and 6), sulfate). Besides, the “Pinprick # ST[…]-ANALGESIC, Total” value in the assay on rat pain model variants [5] (Morphine 5 mg/kg IP, total of 5 rats, pre total 30, pre vs post p=2.1E-3) worked out at 12. In addition, the “Post Avg, Average Positive stimulations out of 6 total, Stim PP Pin Prick” value in the assay with rat pain model variants [5] (Morphine Sulfate 5 mg/kg (IP), Pre Avg 5.67, p=2.0E-10) was determined as 2.17. Moreover, the analgesic response entry in assay [6] is on record as “exhibited an analgesic response”.
As for `O=C(c1ccccc1)c1ccc2n1CCC2C(=O)O` (centres unmarked) [Ketorolac, ketorolac], the “analgesic effect (significance)” value with rat pain model variants [2] (ketorolac 10% 0.1 cc IP, Table 7) is reported as “no significant analgesic effect; also recorded: no significant analgesic properties”. Also, the “Pinprick # STIMULATIONS POST-ANALGESIC” value was 6 with rat pain model variants [5] (Ketorolac 10% 0.1 cc IP, 1 rat peroneal n. with Avitene collagen, pre 6); 6 with rat pain model variants [5] (Ketorolac 10% 0.1 cc IP, 1 rat tibial n. with Acemannan hydrogel, pre 6); 6 with rat pain model variants [5] (Ketorolac 10% 0.1 cc IP, 1 rat tibial n. with Alginate hydrogel, pre 6); 5 and 6 in the assay on rat pain model variants [5] (Ketorolac 10% 0.1 cc IP, single rats sciatic n. with Alginate hydrogel (two rats, pre 6 and 6)). Besides, the “Pinprick # STIMULATIONS POST-ANALGESIC, Total” value in the assay with rat pain model variants [5] (Ketorolac 10% 0.1 cc IP, total of 5 rats, pre total 30, pre vs post p=3.7E-1) was 29.
Regarding `CCC1(C)CC(=O)NC1=O` (centres unmarked) [Ethosuximide, ethosuximide], the “analgesic effect (significance)” value in the assay on rat pain model variants [2] (ethosuximide 200 mg/kg IP, Table 12, within 40-80 minutes) is reported as “significant analgesic effects”. For the same compound, the “von Frey F 4.93 # ST[…]-ANALGESIC” value was 0 with rat pain model variants [3] (Ethosuximide 100 mg/kg IP, 1 rat saphenous n. with Avitene collagen, pre 4); 0 in the assay on rat pain model variants [3] (setting [7]); 0 in the assay on rat pain model variants [3] (setting [8]); 0 in the assay on rat pain model variants [3] (Ethosuximide 100 mg/kg IP, single rats sciatic n. with Alginate hydrogel (two rats, pre 3 and 6)). Also, the “von Frey F 4.93 # ST[…]-ANALGESIC, Total” value in the assay on rat pain model variants [3] (Ethosuximide 100 mg/kg IP, total of 5 rats, pre total 25, pre vs post p=1.43E-3) was determined as 0. The “Post Avg, Average Positive stimulations out of 6 total, Stim A vF 4.56” value in the assay on rat pain model variants [3] (Ethosuximide 200 mg/kg (IP), all rats of Tables 8-10, n=12, Pre Avg 1.83, p=2.9E-3) stood at 0.5. For the same compound, the “Post Avg, Average Positive stimulations out of 6 total, Stim B vF 4.93” value in the assay on rat pain model variants [3] (Ethosuximide 200 mg/kg (IP), n=12 rats, Pre Avg 2.92, p=8.4E-5) was 0.58. The “Post Avg, Average Positive stimulations out of 6 total, Stim C vF 5.07” value with rat pain model variants [3] (Ethosuximide 200 mg/kg (IP), n=12 rats, Pre Avg 3.92, p=1.4E-5) turned out to be 0.83. Also, the “Post Avg, Average Positive stimulations out of 6 total, Stim S Brush” value with rat pain model variants [4] (Ethosuximide 200 mg/kg (IP), Pre Avg 4.17, p=1.1E-4) is 1.17. In addition, the “Pinprick # STIMULATIONS POST-ANALGESIC” value with rat pain model variants [5] (Ethosuximide 100 mg/kg IP, 1 rat saphenous n. with Avitene collagen, pre 6) is 1; in the assay on rat pain model variants [5] (setting [7]) it was 0; in the assay with rat pain model variants [5] (setting [8]), 2; with rat pain model variants [5] (Ethosuximide 100 mg/kg IP, single rats sciatic n. with Alginate hydrogel (two rats, pre 6 and 6)) it was 0 and 1. Also, in the assay with rat pain model variants [5] (Ethosuximide 100 mg/kg IP, total of 5 rats, pre total 30, pre vs post p=1.6E-4), the “Pinprick # STIMULATIONS POST-ANALGESIC, Total” value was 4. Further, in the assay on rat pain model variants [5] (Ethosuximide 200 mg/kg (IP), Pre Avg 5.25, p=1.4E-8), the “Post Avg, Average Positive stimulations out of 6 total, Stim PP Pin Prick” value worked out at 1.75.
